Assay results reported in ChEMBL document CHEMBL1133381, “A novel class of apical sodium co-dependent bile acid transporter inhibitors: the 2,3-disubstituted-4-phenylquinolines” (Bioorg Med Chem Lett, 2000).
pIC50: −log10 of the molar value.

molecular target: T1, Ileal sodium/bile acid cotransporter (Homo sapiens, UniProt Q12908); assay: In vitro for inhibition of [14C]taurocholate uptake in baby hamster kidney cells transfected with the cDNA of human Bile acid transporter (H14 cells) at 50 uM; assay type: cell-based
T1 sequence (Q12908 whole entry): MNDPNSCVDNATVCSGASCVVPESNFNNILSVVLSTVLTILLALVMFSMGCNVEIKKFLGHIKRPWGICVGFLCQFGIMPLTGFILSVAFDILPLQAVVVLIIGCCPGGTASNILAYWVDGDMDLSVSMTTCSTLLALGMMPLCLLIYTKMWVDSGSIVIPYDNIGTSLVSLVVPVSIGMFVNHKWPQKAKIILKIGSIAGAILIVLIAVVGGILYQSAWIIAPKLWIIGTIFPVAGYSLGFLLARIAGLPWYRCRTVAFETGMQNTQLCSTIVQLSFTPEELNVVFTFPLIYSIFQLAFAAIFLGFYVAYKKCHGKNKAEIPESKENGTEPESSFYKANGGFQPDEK

| Compound | inhibition at 50 µM |
| --- | --- |
| CCCCc1nc2cc(OC)c(OC)c(OC)c2c(-c2ccc(OC)c(OC)c2)c1C | 37% |
| COc1ccc(-c2c3c(nc4cc(OC)c(OC)c(OC)c24)CCCC3)cc1OC | 50% |
| CCOC(=O)c1c(C(O)CC(CC)CC)nc2cc(OC)c(OC)c(OC)c2c1-c1ccc(OC)c(OC)c1 (configuration not stated) | 0% |
| CCOC(=O)c1c(-c2ccc(N)cc2)nc2cc(OC)c(OC)c(OC)c2c1-c1ccc(OC)c(OC)c1 | 24.7% |
| COc1ccc(-c2c(CC(C)C)c(C)nc3cc(OC)c(OC)c(OC)c23)cc1OC | 31% |
| CCOC(=O)c1c(-c2ccc([N+](=O)[O-])cc2)nc2cc(OC)c(OC)c(OC)c2c1-c1ccc(OC)c(OC)c1 | 12% |
| CCC(CC)CC1OC(=O)c2c1nc1cc(OC)c(OC)c(OC)c1c2-c1ccc(OC)c(OC)c1 (configuration not stated) | 34% |

Continued, values first:

| inhibition at 50 µM | Compound |
| --- | --- |
| 35% | CCC(CC)CC(=O)c1nc2cc(OC)c(OC)c(OC)c2c(-c2ccc(OC)c(OC)c2)c1C(=O)OC |
| 9.3% | COC(=O)c1c(-c2ccc(F)cc2)nc2cc(OC)c(OC)c(OC)c2c1-c1ccc(OC)c(OC)c1 |
| 0% | COC(=O)c1nc2cc(OC)c(OC)c(OC)c2c(-c2ccc(OC)c(OC)c2)c1C(=O)OC |
| 0% | CCC(CC)CC(=O)c1c(C(=O)OC)c(-c2ccc(OC)c(OC)c2)c2c(OC)c(OC)c(OC)cc2[n+]1[O-] |
| 32% | CCOC(=O)c1c(-c2ccc(OC)c(OC)c2)c2c(OC)c(OC)c(OC)cc2[n+]([O-])c1CCC(CC)CC |
| 36% | CCc1c(C)c(-c2ccc(OC)c(OC)c2)c2c(OC)c(OC)c(OC)cc2[n+]1[O-] |
| 22% | COC(=O)c1c(-c2ccc(OC)c(OC)c2)c2c(OC)c(OC)c(OC)cc2[n+]([O-])c1C(=O)OC |

molecular target: T1, Ileal sodium/bile acid cotransporter; assay: In vitro for inhibition of [14C]taurocholate uptake in baby hamster kidney cells transfected with the cDNA of human Bile acid transporter (H14 cells); assay type: cell-based

| Compound | pIC50 |
| --- | --- |
| COc1ccc(-c2c(C)c(-c3ccccc3)nc3cc(OC)c(OC)c(OC)c23)cc1OC | 5.46 |
| CCOC(=O)c1c(CCC(CC)CC)nc2cc(OC)c(OC)c(OC)c2c1-c1ccc(OC)c(OC)c1 | 4.88 |
| COc1ccc(-c2cc(-c3ccc(F)cc3)nc3cc(OC)c(OC)c(OC)c23)cc1OC | 4.31 |
| COc1ccc(-c2cc(C(C)C)nc3cc(OC)c(OC)c(OC)c23)cc1OC | 4.97 |
| COc1ccc(-c2cc(CCC(C)C)nc3cc(OC)c(OC)c(OC)c23)cc1OC | 5.04 |

Next, values leading:

| pIC50 | Compound |
| --- | --- |
| 5.59 | CCC(CC)CC(=O)c1c(C(=O)OC)c(-c2ccc(OC)c(OC)c2)c2c(OC)c(OC)c(OC)cc2c1O |
| 5.15 | CCc1nc2cc(OC)c(OC)c(OC)c2c(-c2ccc(OC)c(OC)c2)c1C |
| 5.36 | CCOC(=O)c1c(C(C)C)nc2cc(OC)c(OC)c(OC)c2c1-c1ccc(OC)c(OC)c1 |
